Here are results for one compound from PMC4982551 (MedChemComm, 2016).

The structures appear in SMILES notation.

This test addresses mPTPB (Mycobacterium tuberculosis, UniProt I6WXK4). Briefly: PTP activity assay with pNPP substrate, mPTPB. The class given is biochemical. The conditions noted are these: ratio of IC50 values.

Sequence of mPTPB (I6WXK4 whole entry, looked up): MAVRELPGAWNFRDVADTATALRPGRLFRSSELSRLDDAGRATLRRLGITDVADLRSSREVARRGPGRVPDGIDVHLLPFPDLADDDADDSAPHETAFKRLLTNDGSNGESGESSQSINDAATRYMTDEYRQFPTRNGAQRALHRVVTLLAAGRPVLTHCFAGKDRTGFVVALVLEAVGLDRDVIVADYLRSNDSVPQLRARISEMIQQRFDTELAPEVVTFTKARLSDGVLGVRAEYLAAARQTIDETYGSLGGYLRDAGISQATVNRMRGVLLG

For the compound `Cc1ccc(S(=O)(=O)NNC(=O)COc2ccc3cc(C(O)(C(F)(F)F)C(F)(F)F)c(O)cc3c2)cc1` [7r], the “selectivity for mPTPB compared to SHP2, PTP1B, CD45, LYP, and FAP-1” value is reported as “more than 7 fold”.
